Here are results for 14 molecules from PubChem BioAssay AID588585 (The Scripps Research Institute Molecular Screening Center, 2011).

Structures are written as SMILES. The source made the active and inactive calls.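 The calls were made as follows: active = inhibition of probe labelling of the enzyme band in the gel above 60%; inactive = inhibition at or below 60%.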

In general, inhibition refers to the relative decrease from the control value, in per cent.

In this assay the test system is Fam108b (ABHD17B) serine hydrolase [Mus musculus]. As to the kind of experiment: inhibition of membrane-bound mouse Fam108b, SAR follow-up, cell lysate, gel-based competitive ABPP, full-length membrane form, powders (AID 588585). The settings on record: Fam108b membrane proteome, competitive ABPP FP-Rh gel; at 5 µM; stronger effect = higher value.
Regarding `O=c1[nH]c(-c2cccs2)nc2scc(-c3ccccc3)c12`, the inhibition was 0% (inactive).
Next, `CC(C)(C)c1nc2scc(-c3ccccc3)c2c(=S)s1`: 0% (inactive); `O=c1[nH]c(-c2ccccc2)nc2scc(-c3ccccc3)c12`: 0% (inactive).
In the case of `O=c1c2c(-c3ccccc3)csc2ncn1Cc1ccccc1` it was 0% (inactive); in that of `O=c1[nH]c(=O)c2c(-c3ccccc3)csc2[nH]1`, 0% (inactive); in that of `COc1ccc(C2NC(=O)c3c(sc(C)c3C)N2)cc1` (centres undefined), 0% (inactive).
Consider `O=c1[nH]c(=S)[nH]c2scc(-c3ccccc3)c12`, for which the inhibition was 0% (inactive).
As to `O=c1oc(-c2ccco2)cc2scc(-c3ccc(Br)cc3)c12`, the inhibition was 0% (inactive).
Next, `Cc1ccc(-c2csc3cc(-c4ccc(Br)cc4)oc(=O)c23)cc1`: 0% (inactive); `Fc1ccccc1-c1nc2scc(-c3cccs3)c2c(=S)s1`: 0% (inactive).
On to `Cc1ccc(C2NC(=O)c3c(sc4c3CCCC4)N2)cc1` (centres undefined), for which the inhibition was 0% (inactive).
In the case of `O=c1[nH]c(=S)[nH]c2scc(-c3cccs3)c12` it was 0% (inactive); in that of `COc1ccc(-c2csc3cc(-c4ccccc4Cl)oc(=O)c23)cc1`, 0% (inactive); in that of `O=c1[nH]c(-c2ccccc2)nc2scc(-c3cccs3)c12`, 0% (inactive).
